Reference: PubChem BioAssay AID1963967 (Molecular Pharmacology Branch, DTP, NCI, 2024)

System: 855422-203-R-J1-PDC spheroids with HUVEC/MSC, viability
Test: Anticancer human tumor 855422-203-R-J1-PDC patient-derived bladder carcinoma cell line growth inhibition [PI3K]
Conditions: for IC50: curve of first compound; for viability, T/C: stronger effect = lower value
Text: Combinatorial screen of targeted agents with the PI3K inhibitors inavolisib, alpelisib, duvelisib, and copanlisib in multi-cell type tumor spheroids
A high-throughput screen of multi-cell type tumor spheroids was designed to identify active combinations of targeted small molecules and PI3K pathway inhibitors. Complex spheroids include a stromal component modeled by human endothelial cells (HUVEC) and fibroblasts modeled by human mesenchymal stem cells (MSCs). The concentration ranges selected for each drug and investigational agent were based upon clinically achievable concentrations if the clinical Cmax of the agent was known.
Compounds. The drugs and investigational agents: inavolisib (NSC800729), alpelisib (NSC765974), duvelisib (NSC772469), copanlisib (NSC816437), ipatasertib (NSC767898), afuresertib (NSC778305), talazoparib (NSC767125), sapanisertib (NSC764658), selumetinib (NSC741078), tovorafenib (DAY101, NSC766906), vemurafenib (NSC761431), ravoxertinib (NSC781343), sotorasib (NSC818433), MRTX1133 (NSC 836407), abemaciclib (NSC 768073), palbociclib (NSC758247), venetoclax (NSC 766270), SY5609 (NSC837396), enzalutamide (NSC755605), and darolutamide (NSC825331), were obtained from the National Cancer Institute (NCI) Developmental Therapeutics Program Chemical Repository. The FDA-approved anticancer drug set is available from the NCI Developmental Therapeutics Program. […] The stock solutions were prepared in dimethyl sulfoxide (DMSO, Sigma-Aldrich, St. Louis, MO, cat. D2650) at 800-fold the tested concentration and stored at -70 degrees C prior to their use. All drugs and investigational agents were tested over a range starting from a high concentration at or near the clinical Cmax and decreasing in half-log increments. If the clinical Cmax for an agent had not been determined, the highest concentration tested was 10 microM.
Cell Culture. All cells were maintained in an incubator at 37 degrees C and 5% CO2 with 95% humidity. The PDC lines were cultured according to standard operating procedures established by the NCI PDMR (https://pdmr.cancer.gov/sops/default.htm). All PDCs were thawed and cultured in Matrigel-coated flasks prepared with a working solution of 1X Ham's F-12 nutrient mix, without supplementation (Invitrogen, Waltham, MA, cat. 11765054), 100 U/mL penicillin-streptomycin (Invitrogen, cat. 15140122), and 2.5% Matrigel (Corning Inc., Corning, NY, cat. 354248) for the first three passages. The 354836-022-R-J1-PDC, 475296-252-R-J1-PDC, and 997726-040-R-J2-PDC lines were cultured in 6A media, which includes advanced DMEM/F-12 (Thermo Fisher Scientific, cat. 12634028), 10 mM HEPES (Thermo Fisher Scientific, cat. 15630080), 1X GlutaMAX supplement (Thermo Fisher Scientific, cat. 35050061), 0.1 mg/mL primocin (InvivoGen, San Diego, CA, cat. ant-pm-2), 10% defined fetal bovine serum, heat inactivated (HyClone Laboratories Inc., Logan, UT, cat. SH30070.03HI), 50% L-WRN conditioned media (ATCC, cat. CRL-3276), 1.25 mM N-Acetyl-L-cysteine (Sigma-Aldrich, cat. A9165), 10 mM nicotinamide (Sigma-Aldrich, cat. N0636), 1X B-27 supplement (Thermo Fisher Scientific, cat. 17504044), 1X N-2 supplement (Thermo Fisher Scientific, cat. 17502048), and 10 microM Y-27632 dihydrochloride (Tocris Bioscience, Bristol, United Kingdom, cat. 1254). The 624824-186-R-J2-PDC line was cultured in 6C/Colon 1B media, which includes all 6A media components plus 50 ng/mL human EGF recombinant protein (Thermo Fisher Scientific, cat. PHG0311). […]
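Note: agents incubated with spheroids for one week before read-out.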
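Throughout, for viability, T/C: 100% = DMSO vehicle-treated control wells.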

Compound: Cn1cnc2c(F)c(Nc3ccc(Br)cc3Cl)c(C(=O)NOCCO)cc21 + CC(Nc1ncnc2nc[nH]c12)c1cc2cccc(Cl)c2c(=O)n1-c1ccccc1
- IC50 (second compound 0.0316 µM): > 3 µM
- IC50 (second compound 0.1 µM): > 3 µM
- IC50 (second compound 0.316 µM): 2.38 µM
- IC50 (second compound 1 µM): 2.17 µM
- IC50 (second compound 3.16 µM): 1.65 µM
- IC50 (second compound 10 µM): 0.529 µM
- viability, T/C (second compound 0.0316 µM, first compound 0.00949 µM): 116%
- viability, T/C (second compound 0.0316 µM, first compound 0.03 µM): 90.7%
- viability, T/C (second compound 0.0316 µM, first compound 0.0949 µM): 114%
- viability, T/C (second compound 0.0316 µM, first compound 0.3 µM): 87.9%
- viability, T/C (second compound 0.0316 µM, first compound 0.949 µM): 78.6%
- viability, T/C (second compound 0.0316 µM, first compound 3 µM): 50.4%
- viability, T/C (second compound 0.1 µM, first compound 0.00949 µM): 109%
- viability, T/C (second compound 0.1 µM, first compound 0.03 µM): 97%
- viability, T/C (second compound 0.1 µM, first compound 0.0949 µM): 104%
- viability, T/C (second compound 0.1 µM, first compound 0.3 µM): 93.8%
- viability, T/C (second compound 0.1 µM, first compound 0.949 µM): 90.5%
- viability, T/C (second compound 0.1 µM, first compound 3 µM): 50.1%
- viability, T/C (second compound 0.316 µM, first compound 0.00949 µM): 91.2%
- viability, T/C (second compound 0.316 µM, first compound 0.03 µM): 100%
- viability, T/C (second compound 0.316 µM, first compound 0.0949 µM): 101%
- viability, T/C (second compound 0.316 µM, first compound 0.3 µM): 103%
- viability, T/C (second compound 0.316 µM, first compound 0.949 µM): 80.2%
- viability, T/C (second compound 0.316 µM, first compound 3 µM): 42.4%
- viability, T/C (second compound 1 µM, first compound 0.00949 µM): 86.9%
- viability, T/C (second compound 1 µM, first compound 0.03 µM): 96.3%
- viability, T/C (second compound 1 µM, first compound 0.0949 µM): 103%
- viability, T/C (second compound 1 µM, first compound 0.3 µM): 88.1%
- viability, T/C (second compound 1 µM, first compound 0.949 µM): 79%
- viability, T/C (second compound 1 µM, first compound 3 µM): 38.7%
- viability, T/C (second compound 3.16 µM, first compound 0.00949 µM): 97%
- viability, T/C (second compound 3.16 µM, first compound 0.03 µM): 96.5%
- viability, T/C (second compound 3.16 µM, first compound 0.0949 µM): 100%
- viability, T/C (second compound 3.16 µM, first compound 0.3 µM): 87.3%
- viability, T/C (second compound 3.16 µM, first compound 0.949 µM): 67.3%
- viability, T/C (second compound 3.16 µM, first compound 3 µM): 31.8%
- viability, T/C (second compound 10 µM, first compound 0.00949 µM): 85.9%
- viability, T/C (second compound 10 µM, first compound 0.03 µM): 74.1%
- viability, T/C (second compound 10 µM, first compound 0.0949 µM): 70.9%
- viability, T/C (second compound 10 µM, first compound 0.3 µM): 58.6%
- viability, T/C (second compound 10 µM, first compound 0.949 µM): 41.6%
- viability, T/C (second compound 10 µM, first compound 3 µM): 21.4%

Compound: Cn1nccc1Nc1nccc(-c2ccn(C(CO)c3ccc(Cl)c(F)c3)c(=O)c2)n1 (centres undefined) + CC(Nc1ncnc2nc[nH]c12)c1cc2cccc(Cl)c2c(=O)n1-c1ccccc1
- IC50 (second compound 0.0316 µM): 8.7 µM
- IC50 (second compound 0.1 µM): 9.94 µM
- IC50 (second compound 0.316 µM): 8.44 µM
- IC50 (second compound 1 µM): 9 µM
- IC50 (second compound 3.16 µM): 7.46 µM
- IC50 (second compound 10 µM): 4.01 µM
- viability, T/C (second compound 0.0316 µM, first compound 0.0316 µM): 113%
- viability, T/C (second compound 0.0316 µM, first compound 0.1 µM): 94.6%
- viability, T/C (second compound 0.0316 µM, first compound 0.316 µM): 116%
- viability, T/C (second compound 0.0316 µM, first compound 1 µM): 98.2%
- viability, T/C (second compound 0.0316 µM, first compound 3.16 µM): 91%
- viability, T/C (second compound 0.0316 µM, first compound 10 µM): 44.3%
- viability, T/C (second compound 0.1 µM, first compound 0.0316 µM): 107%
- viability, T/C (second compound 0.1 µM, first compound 0.1 µM): 98.9%
- viability, T/C (second compound 0.1 µM, first compound 0.316 µM): 109%
- viability, T/C (second compound 0.1 µM, first compound 1 µM): 101%
- viability, T/C (second compound 0.1 µM, first compound 3.16 µM): 92.7%
- viability, T/C (second compound 0.1 µM, first compound 10 µM): 49.5%
- viability, T/C (second compound 0.316 µM, first compound 0.0316 µM): 111%
- viability, T/C (second compound 0.316 µM, first compound 0.1 µM): 98.7%
- viability, T/C (second compound 0.316 µM, first compound 0.316 µM): 105%
- viability, T/C (second compound 0.316 µM, first compound 1 µM): 106%
- viability, T/C (second compound 0.316 µM, first compound 3.16 µM): 90%
- viability, T/C (second compound 0.316 µM, first compound 10 µM): 43.5%
- viability, T/C (second compound 1 µM, first compound 0.0316 µM): 107%
- viability, T/C (second compound 1 µM, first compound 0.1 µM): 112%
- viability, T/C (second compound 1 µM, first compound 0.316 µM): 107%
- viability, T/C (second compound 1 µM, first compound 1 µM): 103%
- viability, T/C (second compound 1 µM, first compound 3.16 µM): 88.1%
- viability, T/C (second compound 1 µM, first compound 10 µM): 45.7%
- viability, T/C (second compound 3.16 µM, first compound 0.0316 µM): 100%
- viability, T/C (second compound 3.16 µM, first compound 0.1 µM): 107%
- viability, T/C (second compound 3.16 µM, first compound 0.316 µM): 107%
- viability, T/C (second compound 3.16 µM, first compound 1 µM): 103%
- viability, T/C (second compound 3.16 µM, first compound 3.16 µM): 84.4%
- viability, T/C (second compound 3.16 µM, first compound 10 µM): 38.2%
- viability, T/C (second compound 10 µM, first compound 0.0316 µM): 88.5%
- viability, T/C (second compound 10 µM, first compound 0.1 µM): 81.3%
- viability, T/C (second compound 10 µM, first compound 0.316 µM): 87.4%
- viability, T/C (second compound 10 µM, first compound 1 µM): 80%
- viability, T/C (second compound 10 µM, first compound 3.16 µM): 56.5%
- viability, T/C (second compound 10 µM, first compound 10 µM): 25.1%
